{"source": "ChEMBL document CHEMBL4002643", "about": "“Tubulin-binding dibenz[c,e]oxepines: Part 2. Structural variation and biological evaluation as tumour vasculature disrupting agents” (Bioorg Med Chem, 2017)", "key": {"DU-145": {"test_system": "DU-145", "assay": "Cytotoxicity against human DU145 cells assessed as growth inhibition after 48 hrs by SRB assay", "format": "functional", "conditions": "DU-145, 48 h"}, "SF-268": {"test_system": "SF-268", "assay": "Cytotoxicity against human SF268 cells assessed as growth inhibition after 48 hrs by SRB assay", "format": "functional", "conditions": "SF-268, 48 h"}, "OVCAR-8": {"test_system": "OVCAR-8", "assay": "Cytotoxicity against human OVCAR8 cells assessed as growth inhibition after 48 hrs by SRB assay", "format": "functional", "conditions": "OVCAR-8, 48 h"}, "HOP-92": {"test_system": "HOP-92", "assay": "Cytotoxicity against human HOP92 cells assessed as growth inhibition after 48 hrs by SRB assay", "format": "functional", "conditions": "HOP-92, 48 h"}, "Calu-6 [1]": {"test_system": "Calu-6", "assay": "Antitumor activity against human Calu6 cells xenografted in nu/nu CBA mouse assessed as tumor growth inhibition at 67.5 to 135 mg/kg, ip administered on day 1 and 5 measured on day 3 to 4 and day 7 to 16 post dose", "format": "functional, organism-based"}, "K562 [2]": {"test_system": "K562", "assay": "Cytotoxicity against human K562 cells assessed as growth inhibition after 48 hrs by SRB assay", "format": "functional", "conditions": "K562, 48 h"}, "Mus musculus [3]": {"test_system": "Mus musculus", "assay": "Toxicity in human Calu6 cells xenografted nu/nu CBA mouse assessed as change in body weight at 67.5 to 135 mg/kg, ip administered on day 1 and 5 measured daily over 12 days", "format": "organism-based", "conditions": "in vivo, 288 h"}, "HCT-15": {"test_system": "HCT-15", "assay": "Cytotoxicity against human HCT15 cells assessed as growth inhibition after 48 hrs by SRB assay", "format": "functional", "conditions": "HCT-15, 48 h"}, "OVCAR-3": {"test_system": "OVCAR-3", "assay": "Cytotoxicity against human OVCAR3 cells assessed as growth inhibition after 48 hrs by SRB assay", "format": "functional", "conditions": "OVCAR-3, 48 h"}, "SK-MEL-2": {"test_system": "SK-MEL-2", "assay": "Cytotoxicity against human SK-MEL-2 cells assessed as growth inhibition after 48 hrs by SRB assay", "format": "functional", "conditions": "SK-MEL-2, 48 h"}, "Calu-6 [4]": {"test_system": "Calu-6", "assay": "Antitumor activity against human Calu6 cells xenografted in nu/nu CBA mouse assessed as tumor growth inhibition at 67.5 to 135 mg/kg, ip administered on day 1 and 5 measured on day 2 and 6 post dose", "format": "functional, organism-based"}, "TK-10": {"test_system": "TK-10", "assay": "Cytotoxicity against human TK10 cells assessed as growth inhibition after 48 hrs by SRB assay", "format": "functional", "conditions": "TK-10, 48 h"}, "K562 [5]": {"test_system": "K562", "assay": "Cytotoxicity against human K562 cells assessed as growth inhibition after 5 days by MTT assay", "format": "functional, cell-based", "conditions": "K562, 120 h"}, "IGROV-1": {"test_system": "IGROV-1", "assay": "Cytotoxicity against human IGROV1 cells assessed as growth inhibition after 48 hrs by SRB assay", "format": "functional", "conditions": "IGROV-1, 48 h"}, "Malme-3M": {"test_system": "Malme-3M", "assay": "Cytotoxicity against human MALME-3M cells assessed as growth inhibition after 48 hrs by SRB assay", "format": "functional"}, "EKVX": {"test_system": "EKVX", "assay": "Cytotoxicity against human EKVX cells assessed as growth inhibition after 48 hrs by SRB assay", "format": "functional"}, "DLD-1 [6]": {"test_system": "DLD-1", "assay": "Vascular disrupting activity in human DLD1 cells xenografted in Balb/C immunodeficient nude mouse assessed as induction of necrosis by measuring necrotic area at 400 mg/kg, iv at 1 hr post dose by haematoxylin and eosin staining-based assay (reference value: 19 +/- 9.6%)", "format": "functional"}, "DLD-1 [7]": {"test_system": "DLD-1", "assay": "Vascular disrupting activity in human DLD1 cells xenografted in Balb/C immunodeficient nude mouse assessed as induction of necrosis by measuring necrotic area at 400 mg/kg, iv at 4 hrs post dose by haematoxylin and eosin staining-based assay (reference value: 19 +/- 9.6%)", "format": "functional"}, "Mus musculus [8]": {"test_system": "Mus musculus", "assay": "Toxicity in human DLD1 cells xenografted Balb/C immunodeficient nude mouse assessed as body weight loss at 200 to 400 mg/kg, iv administered day 2 and 4 measured 14 days post dose", "format": "organism-based", "conditions": "in vivo, 336 h"}, "DLD-1 [9]": {"test_system": "DLD-1", "assay": "Induction of vascular shutdown in human DLD1 cells xenografted in Balb/C immunodeficient nude mouse assessed as vascular element counts at 400 mg/kg, iv at 24 hrs post dose by […] dye-based microscopic method (reference value: 3.73 +/- 3.1%)", "format": "functional"}, "DLD-1 [10]": {"test_system": "DLD-1", "assay": "Induction of vascular shutdown in human DLD1 cells xenografted in Balb/C immunodeficient nude mouse assessed as vascular element counts at 400 mg/kg, iv at 4 hrs post dose by […] dye-based microscopic method (reference value: 3.73 +/- 3.1%)", "format": "functional"}, "DLD-1 [11]": {"test_system": "DLD-1", "assay": "Induction of vascular shutdown in human DLD1 cells xenografted in Balb/C immunodeficient nude mouse assessed as vascular element counts at 400 mg/kg, iv at 1 hr post dose by […] dye-based microscopic method (reference value: 3.73 +/- 3.1%)", "format": "functional"}, "DLD-1 [12]": {"test_system": "DLD-1", "assay": "Vascular disrupting activity in human DLD1 cells xenografted in Balb/C immunodeficient nude mouse assessed as induction of necrosis by measuring necrotic area at 400 mg/kg, iv at 24 hrs post dose by haematoxylin and eosin staining-based assay (reference value: 19 +/- 9.6%)", "format": "functional"}, "DLD-1 [13]": {"test_system": "DLD-1", "assay": "Induction of vascular shutdown in human DLD1 cells xenografted in Balb/C immunodeficient nude mouse at 400 mg/kg, iv by […] dye-based microscopic method", "format": "functional, organism-based", "conditions": "TDE = time-dependent effect"}}, "note": "Calls of active or inactive are those of the source. No cut-off for these calls is given here."}
{"smiles": "COc1ccc2c(c1O)COCc1cc(OC)c(OC)c(OC)c1-2", "values": [{"measurement": "GI50", "setting": "DU-145", "result": 60, "unit": "nM"}, {"measurement": "GI50", "setting": "SF-268", "result": 90, "unit": "nM"}, {"measurement": "GI50", "setting": "OVCAR-8", "result": 200, "unit": "nM"}, {"measurement": "GI50", "setting": "HOP-92", "result": 590, "unit": "nM"}, {"measurement": "TGI", "setting": "Calu-6 [1]", "result": "inactive"}, {"measurement": "GI50", "setting": "K562 [2]", "result": 40, "unit": "nM"}, {"measurement": "Activity", "setting": "Mus musculus [3]", "result": "Non-Toxic"}, {"measurement": "GI50", "setting": "HCT-15", "result": 80, "unit": "nM"}, {"measurement": "GI50", "setting": "OVCAR-3", "result": 210, "unit": "nM"}, {"measurement": "GI50", "setting": "SK-MEL-2", "result": 260, "unit": "nM"}, {"measurement": "TGI", "setting": "Calu-6 [4]", "result": "Active"}, {"measurement": "GI50", "setting": "TK-10", "result": "> 100000", "unit": "nM"}, {"measurement": "IC50", "setting": "K562 [5]", "result": 34000, "unit": "nM"}, {"measurement": "GI50", "setting": "IGROV-1", "result": 630, "unit": "nM"}]}
{"smiles": "COc1ccc2c(c1)COCc1cc(OC)c(OC)c(OC)c1-2", "values": [{"measurement": "GI50", "setting": "Malme-3M", "result": "> 100000", "unit": "nM"}, {"measurement": "GI50", "setting": "DU-145", "result": 180, "unit": "nM"}, {"measurement": "GI50", "setting": "SF-268", "result": 460, "unit": "nM"}, {"measurement": "GI50", "setting": "OVCAR-8", "result": 310, "unit": "nM"}, {"measurement": "GI50", "setting": "HOP-92", "result": "> 100000", "unit": "nM"}, {"measurement": "GI50", "setting": "EKVX", "result": 600, "unit": "nM"}, {"measurement": "GI50", "setting": "K562 [2]", "result": 40, "unit": "nM"}, {"measurement": "GI50", "setting": "HCT-15", "result": 80, "unit": "nM"}, {"measurement": "GI50", "setting": "OVCAR-3", "result": 50, "unit": "nM"}, {"measurement": "GI50", "setting": "SK-MEL-2", "result": 100, "unit": "nM"}, {"measurement": "GI50", "setting": "TK-10", "result": "> 100000", "unit": "nM"}, {"measurement": "IC50", "setting": "K562 [5]", "result": 110000, "unit": "nM"}, {"measurement": "GI50", "setting": "IGROV-1", "result": 850, "unit": "nM"}]}
{"smiles": "COc1ccc2c(c1OP(=O)([O-])[O-])COCc1cc(OC)c(OC)c(OC)c1-2.[Na+].[Na+]", "values": [{"measurement": "GI50", "setting": "Malme-3M", "result": 2510, "unit": "nM"}, {"measurement": "GI50", "setting": "DU-145", "result": 390, "unit": "nM"}, {"measurement": "GI50", "setting": "SF-268", "result": 790, "unit": "nM"}, {"measurement": "Activity", "setting": "DLD-1 [6]", "result": 27.1, "unit": "%"}, {"measurement": "Activity", "setting": "DLD-1 [7]", "result": 26, "unit": "%"}, {"measurement": "Activity", "setting": "Mus musculus [8]", "result": "Non-Toxic"}, {"measurement": "GI50", "setting": "OVCAR-8", "result": 420, "unit": "nM"}, {"measurement": "GI50", "setting": "EKVX", "result": 680, "unit": "nM"}, {"measurement": "GI50", "setting": "K562 [2]", "result": 280, "unit": "nM"}, {"measurement": "GI50", "setting": "HCT-15", "result": 440, "unit": "nM"}, {"measurement": "Activity", "setting": "DLD-1 [9]", "result": 0.95, "unit": "%"}, {"measurement": "GI50", "setting": "OVCAR-3", "result": 280, "unit": "nM"}, {"measurement": "GI50", "setting": "SK-MEL-2", "result": 5370, "unit": "nM"}, {"measurement": "IC50", "setting": "K562 [5]", "result": 230, "unit": "nM"}, {"measurement": "Activity", "setting": "DLD-1 [10]", "result": 1.96, "unit": "%"}, {"measurement": "Activity", "setting": "DLD-1 [11]", "result": 0.33, "unit": "%"}, {"measurement": "GI50", "setting": "IGROV-1", "result": 4070, "unit": "nM"}, {"measurement": "Activity", "setting": "DLD-1 [12]", "result": 74.1, "unit": "%"}, {"measurement": "Activity", "setting": "DLD-1 [13]", "result": "Tde"}]}
